Species: Rattus norvegicus
Test: Open TG-GATES - Regimen: Single
Type: toxicity, organism-based, Sprague-Dawley
Design: regimen Single, gender Male, age 6 weeks
Details: in vivo, iv, 60 mg/kg, route intravenous injection, dose level High; for APTT / Bas / Eos / Fbg / Hb / Ht / Lym / MCH / MCHC / MCV / Mono / Neu / PT / Plat / RBC / Ret / WBC: tissue Blood; for KIDNEY_L / KIDNEY_R / KIDNEY_TOTAL: tissue Kidney; for LIVER: tissue Liver; for A/G / ALP / ALT / AST / BUN / CRE / Ca / Cl / DBIL / GLC / IP / K / LDH / Na / PL / RALB / TBIL / TC / TG / TP / gamma-GTP: tissue Plasma

SMILES: NCCBr [BROMOETHANAMINE]
- TERMINAL_BW (3 h): 212.4 g
- APTT (3 h): 23.5 s
- Bas (3 h): 0%
- Eos (3 h): 0.6%
- Fbg (3 h): 312.8 mg/dL
- Hb (3 h): 14.4 g/dL
- Ht (3 h): 41.9%
- Lym (3 h): 70.8%
- MCH (3 h): 21.8 pg
- MCHC (3 h): 34.5%
- MCV (3 h): 63.3 fL
- Mono (3 h): 2.4%
- Neu (3 h): 25.4%
- PT (3 h): 16.1 s
- Plat (3 h): 131.5 x10_4/uL
- RBC (3 h): 661.2 x10_4/ul
- Ret (3 h): 6%
- WBC (3 h): 39.6 x10_2/uL
- KIDNEY_L (3 h): 0.9 g
- KIDNEY_R (3 h): 1 g
- KIDNEY_TOTAL (3 h): 1.9 g
- LIVER (3 h): 9.3 g
- A/G (3 h): 1.2
- ALP (3 h): 1494.4 IU/L
- ALT (3 h): 47 IU/L
- AST (3 h): 56.8 IU/L
- BUN (3 h): 13.4 mg/dL
- CRE (3 h): 0.1 mg/dL
- Ca (3 h): 10.7 mg/dL
- Cl (3 h): 106.8 meq/L
- DBIL (3 h): 0.002 mg/dL
- GLC (3 h): 166.2 mg/dL
- IP (3 h): 10.5 mg/dL
- K (3 h): 4.1 meq/L
- LDH (3 h): 321.8 IU/L
- Na (3 h): 143.4 meq/L
- PL (3 h): 141 mg/dL
- RALB (3 h): 3.1 g/dL
- TBIL (3 h): 0.014 mg/dL
- TC (3 h): 85.4 mg/dL
- TG (3 h): 46.4 mg/dL
- TP (3 h): 5.9 g/dL
- gamma-GTP (3 h): 1 IU/L
- TERMINAL_BW (6 h): 208.7 g
- APTT (6 h): 23.1 s
- Bas (6 h): 0%
- Eos (6 h): 0.6%
- Fbg (6 h): 325.6 mg/dL
- Hb (6 h): 14.2 g/dL
- Ht (6 h): 40.9%
- Lym (6 h): 74.2%
- MCH (6 h): 20.9 pg
- MCHC (6 h): 34.8%
- MCV (6 h): 60.1 fL
- Mono (6 h): 1.6%
- Neu (6 h): 23.2%
- PT (6 h): 16.1 s
- Plat (6 h): 136 x10_4/uL
- RBC (6 h): 681 x10_4/ul
- Ret (6 h): 5.4%
- WBC (6 h): 35.9 x10_2/uL
- KIDNEY_L (6 h): 1 g
- KIDNEY_R (6 h): 1 g
- KIDNEY_TOTAL (6 h): 2 g
- LIVER (6 h): 9.1 g
- A/G (6 h): 1.2
- ALP (6 h): 1401.4 IU/L
- ALT (6 h): 39.2 IU/L
- AST (6 h): 54.2 IU/L
- BUN (6 h): 15.6 mg/dL
- CRE (6 h): 0.1 mg/dL
- Ca (6 h): 10.6 mg/dL
- Cl (6 h): 101.4 meq/L
- DBIL (6 h): 0.004 mg/dL
- GLC (6 h): 201 mg/dL
- IP (6 h): 10.2 mg/dL
- K (6 h): 4 meq/L
- LDH (6 h): 362.4 IU/L
- Na (6 h): 142 meq/L
- PL (6 h): 133 mg/dL
- RALB (6 h): 3.2 g/dL
- TBIL (6 h): 0.01 mg/dL
- TC (6 h): 80.8 mg/dL
- TG (6 h): 27.6 mg/dL
- TP (6 h): 6 g/dL
- gamma-GTP (6 h): 1.2 IU/L
- TERMINAL_BW (9 h): 202.6 g
- APTT (9 h): 24.1 s
- Bas (9 h): 0%
- Eos (9 h): 0.2%
- Fbg (9 h): 341.6 mg/dL
- Hb (9 h): 14.9 g/dL
- Ht (9 h): 42.6%
- Lym (9 h): 71%
- MCH (9 h): 21.5 pg
- MCHC (9 h): 35%
- MCV (9 h): 61.4 fL
- Mono (9 h): 3.2%
- Neu (9 h): 24.2%
- PT (9 h): 15.8 s
- Plat (9 h): 135.3 x10_4/uL
- RBC (9 h): 695 x10_4/ul
- Ret (9 h): 5.2%
- WBC (9 h): 40.1 x10_2/uL
- KIDNEY_L (9 h): 1 g
- KIDNEY_R (9 h): 1 g
- KIDNEY_TOTAL (9 h): 2 g
- LIVER (9 h): 8.8 g
- A/G (9 h): 1.2
- ALP (9 h): 1484.2 IU/L
- ALT (9 h): 34.4 IU/L
- AST (9 h): 49.6 IU/L
- BUN (9 h): 19.8 mg/dL
- CRE (9 h): 0.2 mg/dL
- Ca (9 h): 10.7 mg/dL
- Cl (9 h): 101.4 meq/L
- DBIL (9 h): 0 mg/dL
- GLC (9 h): 223.8 mg/dL
- IP (9 h): 9.1 mg/dL
- K (9 h): 3.6 meq/L
- LDH (9 h): 316.2 IU/L
- Na (9 h): 142 meq/L
- PL (9 h): 154.6 mg/dL
- RALB (9 h): 3.4 g/dL
- TBIL (9 h): 0.016 mg/dL
- TC (9 h): 86.8 mg/dL
- TG (9 h): 84.2 mg/dL
- TP (9 h): 6.2 g/dL
- gamma-GTP (9 h): 1.4 IU/L
- TERMINAL_BW (24 h): 206.5 g
- APTT (24 h): 24.1 s
- Bas (24 h): 0%
- Eos (24 h): 0.6%
- Fbg (24 h): 354.4 mg/dL
- Hb (24 h): 14.6 g/dL
- Ht (24 h): 42.3%
- Lym (24 h): 81.6%
- MCH (24 h): 21 pg
- MCHC (24 h): 34.6%
- MCV (24 h): 60.9 fL
- Mono (24 h): 2.6%
- Neu (24 h): 13.8%
- PT (24 h): 16.1 s
- Plat (24 h): 130.9 x10_4/uL
- RBC (24 h): 695 x10_4/ul
- Ret (24 h): 4%
- WBC (24 h): 90.8 x10_2/uL
- KIDNEY_L (24 h): 1 g
- KIDNEY_R (24 h): 1 g
- KIDNEY_TOTAL (24 h): 1.9 g
- LIVER (24 h): 8.1 g
- A/G (24 h): 1.2
- ALP (24 h): 1421.6 IU/L
- ALT (24 h): 35.4 IU/L
- AST (24 h): 61.4 IU/L
- BUN (24 h): 18.4 mg/dL
- CRE (24 h): 0.2 mg/dL
- Ca (24 h): 10.7 mg/dL
- Cl (24 h): 109.4 meq/L
- DBIL (24 h): 0.004 mg/dL
- GLC (24 h): 174 mg/dL
- IP (24 h): 7.9 mg/dL
- K (24 h): 4.2 meq/L
- LDH (24 h): 278.8 IU/L
- Na (24 h): 142.8 meq/L
- PL (24 h): 141.4 mg/dL
- RALB (24 h): 3.1 g/dL
- TBIL (24 h): 0.028 mg/dL
- TC (24 h): 91.4 mg/dL
- TG (24 h): 36.4 mg/dL
- TP (24 h): 5.8 g/dL
- gamma-GTP (24 h): 1.6 IU/L

From ChEMBL document CHEMBL3885861, “Open TG-GATES”
